Experimental data published in article PMC12472391, “Borylated Five-Membered Ring Iminosugars: Synthesis, Spectroscopic Analysis, and Biological Evaluation for Glycosidase Inhibition and Anticancer Properties for Application in Boron Neutron Capture Therapy (BNCT)—Part 1” (Pharmaceuticals, 2025).

Assays:
[1] = tested on: BE2-C neuroblastoma cells; test: Cancer screening, MTT growth inhibition; format: cell-based; conditions: 72-h exposure; for inhibition at 25 µM: Homo sapiens, BE(2)-C, read-out: BE2-C Neuroblastoma, Percentage (%) Cell Growth Inhibition in response to 25 µM of Drug
Procedure: (§1) Two assays were run: the dose screen to ascertain cell growth inhibition in response to 25 µM of drug (on a blue background) and the dose response (GI50) (on a green background). For a discussion of BNCT as a radiotherapeutic modality, a rationalisation is provided here.
(§2) All test agents were prepared as stock solutions (20 mM) in dimethyl sulfoxide (DMSO) and stored at −20 °C. Cell lines used in the study included HT29, (colorectal carcinoma); U87, SJ-G2, (glioblastoma); MCF-7, (breast carcinoma); A2780 (ovarian carcinoma); H460 (lung carcinoma); A431 (skin carcinoma); Du145 (prostate carcinoma); BE2-C (neuroblastoma) and MiaPaCa-2 (pancreatic carcinoma); together with the one non-tumour derived normal breast cell line (MCF10A). All cell lines were incubated in a humidified atmosphere 5% CO2 at 37 °C. The cancer cell lines were maintained in Dulbecco’s modified Eagle’s medium (DMEM; Sigma, Australia) supplemented with foetal bovine serum (10%), sodium pyruvate (10 mM), penicillin (100 IUmL^−1), streptomycin (100 µg mL^−1), and L-glutamine (2 mM).
(§3) Growth inhibition was determined by plating cells in duplicate in medium (100 µL) at a density of 2500–4000 cells per well in 96-well plates. On day 0 (24 h after plating), when the cells are in logarithmic growth, medium (100 µL) with or without the test agent was added to each well. After a 72-h drug exposure, growth inhibitory effects were evaluated using the MTT (3-(4,5-dimethyltiazol-2-yl)-2,5-diphenyltetrazolium bromide) assay and absorbance read at 540 nm. The percentage growth inhibition was calculated at a fixed concentration of 25 µM, based on the difference between the optical density values on day 0 and those at the end of drug exposure. Each data point is the mean ± the standard error of the mean (SEM) calculated from three replicates, which were performed on separate occasions and separate cell line passages.

[2] = tested on: A2780 ovarian carcinoma cells; test: Cancer screening, MTT growth inhibition; format: cell-based; conditions: 72-h exposure; for inhibition at 25 µM / GI50: Homo sapiens; for inhibition at 25 µM: A2780, 25 µM, read-out: A2780 Ovarian Carcinoma, Percentage (%) Cell Growth Inhibition in response to 25 µM of Drug; for GI50: A2780, dose response, read-out: A2780 Ovarian Carcinoma, GI50 = Concentration (µM) that inhibits cell growth by 50%
Procedure: as §1, §2, §3

SJ-G2 glioblastoma cells = test: Cancer screening, MTT growth inhibition; format: cell-based; conditions: for inhibition at 25 µM: SJ-G2, 72-h exposure, read-out: SJ-G2 Glioblastoma, Percentage (%) Cell Growth Inhibition in response to 25 µM of Drug
Procedure: as §1, §2, §3

[3] = tested on: A431 skin carcinoma cells; test: Cancer screening, MTT growth inhibition; format: cell-based; conditions: 72-h exposure; for inhibition at 25 µM / GI50: Homo sapiens; for inhibition at 25 µM: A-431, 25 µM, read-out: A431 Skin Carcinoma, Percentage (%) Cell Growth Inhibition in response to 25 µM of Drug; for GI50: A-431, dose response, read-out: A431 Skin Carcinoma, GI50 = Concentration (µM) that inhibits cell growth by 50%
Procedure: as §1, §2, §3

[4] = tested on: Du145 prostate carcinoma cells; test: Cancer screening, MTT growth inhibition; format: cell-based; conditions: for inhibition at 25 µM: Homo sapiens, DU-145, 72-h exposure, read-out: Du145 Prostate Carcinoma, Percentage (%) Cell Growth Inhibition in response to 25 µM of Drug
Procedure: as §1, §2, §3

[5] = tested on: HT29 colon carcinoma cells; test: Cancer screening, MTT growth inhibition; format: cell-based; conditions: 72-h exposure; for inhibition at 25 µM / GI50: Homo sapiens; for inhibition at 25 µM: HT-29, 25 µM, read-out: HT29 Colon Carcinoma, Percentage (%) Cell Growth Inhibition in response to 25 µM of Drug; for GI50: HT-29, dose response, read-out: HT29 Colon Carcinoma, GI50 = Concentration (µM) that inhibits cell growth by 50%
Procedure: as §1, §2, §3

[6] = tested on: MIA-Pa-Ca2 pancreatic carcinoma cells; test: Cancer screening, MTT growth inhibition; format: cell-based; conditions: 72-h exposure; for inhibition at 25 µM / GI50: Homo sapiens; for inhibition at 25 µM: MIA PaCa-2, 25 µM, read-out: MIA-Pa-Ca2 Pancreatic Carcinoma, Percentage (%) Cell Growth Inhibition in response to 25 µM of Drug; for GI50: MIA PaCa-2, dose response, read-out: MIA-Pa-Ca2 Pancreatic Carcinoma, GI50 = Concentration (µM) that inhibits cell growth by 50%
Procedure: as §1, §2, §3

U87 glioblastoma cells = test: Cancer screening, MTT growth inhibition; format: cell-based; conditions: 72-h exposure; for inhibition at 25 µM: read-out: U87 Glioblastoma, Percentage (%) Cell Growth Inhibition in response to 25 µM of Drug
Procedure: as §1, §2, §3

[7] = tested on: H460 lung carcinoma cells; test: Cancer screening, MTT growth inhibition; format: cell-based; conditions: 72-h exposure; for inhibition at 25 µM / GI50: Homo sapiens; for inhibition at 25 µM: NCI-H460, 25 µM, read-out: H460 Lung Carcinoma, Percentage (%) Cell Growth Inhibition in response to 25 µM of Drug; for GI50: NCI-H460, dose response, read-out: H460 Lung Carcinoma, GI50 = Concentration (µM) that inhibits cell growth by 50%
Procedure: as §1, §2, §3

[8] = tested on: MCF-7 breast carcinoma cells; test: Cancer screening, MTT growth inhibition; format: cell-based; conditions: for inhibition at 25 µM: Homo sapiens, MCF7, 72-h exposure, read-out: MCF-7 Breast Carcinoma, Percentage (%) Cell Growth Inhibition in response to 25 µM of Drug
Procedure: as §1, §2, §3

α-D-glucosidase (yeast) = biological target: T1, α-D-glucosidase (yeast) (Saccharomyces cerevisiae, UniProt P53341); test: Glycosidase inhibition, Table 7; format: biochemical; conditions: 1 mg/mL aqueous solution added, 27 °C, run in water; for inhibition at 1000 µg/mL (stock): read-out: α-D-Glucosidase Yeast, percentage inhibition
T1 construct: purchased Sigma
Procedure: (§4) All enzymes and para-nitrophenyl substrates were purchased from Sigma. Enzymes were assayed at 27 °C in citric acid (0.1M)/disodium hydrogen phosphate (0.2 M) buffers at the optimum pH for the enzyme. The incubation mixture consisted of […] enzyme solution, […] of 1 mg/mL aqueous solution of extract, and […] of the appropriate 5 mM para-nitrophenyl substrate made up in buffer at the optimum pH for the enzyme. The reactions were stopped by the addition of […] 0.4 M glycine (pH 10.4) during the exponential phase of the reaction, which had been determined at the beginning using uninhibited assays in which water replaced the inhibitor. Final absorbances were read at 405 nm using a Versamax microplate reader (Molecular Devices). Assays were carried out in triplicate, and the values given are the means of the three replicates per assay. All reactions run in water.

[9] = tested on: β-D-glucuronidase (bovine liver); test: Glycosidase inhibition, Table 7; format: biochemical; conditions: 1 mg/mL aqueous solution added, 27 °C, run in water
Procedure: as §4

β-D-glucosidase (almond) = test: Glycosidase inhibition, Table 7; format: biochemical; conditions: 1 mg/mL aqueous solution added, 27 °C, run in water
Procedure: as §4

T1 sequence (P53341 whole entry): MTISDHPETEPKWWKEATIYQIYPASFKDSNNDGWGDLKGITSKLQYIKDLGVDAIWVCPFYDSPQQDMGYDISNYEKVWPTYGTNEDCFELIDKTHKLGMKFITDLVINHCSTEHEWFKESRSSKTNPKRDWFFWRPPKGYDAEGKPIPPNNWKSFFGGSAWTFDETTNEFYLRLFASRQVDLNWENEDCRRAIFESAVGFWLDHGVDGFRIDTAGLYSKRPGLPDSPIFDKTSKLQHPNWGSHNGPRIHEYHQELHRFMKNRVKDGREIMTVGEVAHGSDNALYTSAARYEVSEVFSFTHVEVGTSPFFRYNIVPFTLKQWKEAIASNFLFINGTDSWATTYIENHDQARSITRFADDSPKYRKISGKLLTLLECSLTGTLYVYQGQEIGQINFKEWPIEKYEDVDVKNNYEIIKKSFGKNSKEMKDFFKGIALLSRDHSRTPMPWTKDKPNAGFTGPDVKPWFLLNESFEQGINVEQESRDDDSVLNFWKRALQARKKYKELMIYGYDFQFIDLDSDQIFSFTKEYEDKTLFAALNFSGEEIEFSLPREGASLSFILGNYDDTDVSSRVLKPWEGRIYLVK

SMILES | inhibition at 25 µM [1] [%] | inhibition at 25 µM [2] [%] | inhibition at 25 µM (SJ-G2 glioblastoma cells) [%] | inhibition at 25 µM [3] [%] | inhibition at 25 µM [4] [%] | inhibition at 25 µM [5] [%] | inhibition at 25 µM [6] [%] | inhibition at 25 µM (U87 glioblastoma cells) [%] | inhibition at 25 µM [7] [%] | inhibition at 25 µM [8] [%] | inhibition at 1000 µg/mL (stock) (α-D-glucosidase (yeast)) [%] | β-D-Glucuronidase Bovine Liver, percentage inhibition [9] [%] | β-D-Glucosidase Almond, percentage inhibition (β-D-glucosidase (almond)) [%] | GI50 [2] [µM] | GI50 [3] [µM] | GI50 [5] [µM] | GI50 [6] [µM] | GI50 [7] [µM] | further results
N[C@@H](Cc1ccc(B(O)O)cc1)C(=O)O [BPA, 4-borono-L-phenylalanine, reference compound] | 13 | 4 | 5 | 4 | 19 | 14 | 3 | < 0 | 7 | < 0 | 2.9 | −0.7 | 3.9 |  |  |  |  |  | 
CC1(C)O[C@H]2O[C@H]3[C@@H]([C@H]2O1)N(Cc1ccccc1)C[C@H]3O [Compound 3, N-Benzyl-3,6-dideoxy-3,6-imino-1,2-O-isopropylidene-α-D-gulofuranose] | 10 | 11 | 10 | 7 | < 0 | 10 | 7 | 5 | 9 | 7 | -89 | −0.2 | −8.3 |  |  |  |  |  | 
OC1O[C@@H]2[C@H]([C@H]1O)N(Cc1ccccc1)C[C@H]2O (stereo partly drawn) [Compound 4, N-Benzyl-3,6-dideoxy-3,6-imino-D-gulofuranose] | 12 | 15 | 12 | 11 | 0 | 11 | 8 | 8 | 8 | 9 | -79 | −4.3 | 58.1 |  |  |  |  |  | 
OC[C@H](O)[C@@H]1[C@H](O)[C@H](O)CN1Cc1ccccc1 [Compound 5, N-Benzyl-1,4-dideoxy-1,4-imino-L-gulitol] |  | 13 ± 6 |  | 2 |  | 2 ± 3 | 6 ± 1 |  | 0 |  | 5.5 | −2.2 | 17.1 | > 50 | > 50 | > 50 | > 50 | > 50 | 
N[C@@H](Cc1ccc(B(O)O)cc1)C(=O)O [^10B-BPA, reference compound] |  |  |  |  |  |  |  |  |  |  |  | −1 | 3 |  |  |  |  |  | BE2-C Neuroblastoma, Percentage (%) Cell Growth Inhibition in response to 25 µM of Drug [1]: * 10 ± 6%; A2780 Ovarian Carcinoma, Percentage (%) Cell Growth Inhibition in response to 25 µM of Drug ([2]; 25 µM): * 8 ± 4%; SJ-G2 Glioblastoma, Percentage (%) Cell Growth Inhibition in response to 25 µM of Drug (SJ-G2 glioblastoma cells; 72-h exposure): * 5 ± 10%; A431 Skin Carcinoma, Percentage (%) Cell Growth Inhibition in response to 25 µM of Drug ([3]; 25 µM): * 4 ± 4%; Du145 Prostate Carcinoma, Percentage (%) Cell Growth Inhibition in response to 25 µM of Drug ([4]; 72-h exposure): * 15 ± 9%; HT29 Colon Carcinoma, Percentage (%) Cell Growth Inhibition in response to 25 µM of Drug ([5]; 25 µM): * 15 ± 4%; MIA-Pa-Ca2 Pancreatic Carcinoma, Percentage (%) Cell Growth Inhibition in response to 25 µM of Drug ([6]; 25 µM): * 11 ± 3%; U87 Glioblastoma, Percentage (%) Cell Growth Inhibition in response to 25 µM of Drug (U87 glioblastoma cells): * <0%; H460 Lung Carcinoma, Percentage (%) Cell Growth Inhibition in response to 25 µM of Drug ([7]; 25 µM): * 8 ± 5%; MCF-7 Breast Carcinoma, Percentage (%) Cell Growth Inhibition in response to 25 µM of Drug ([8]; 72-h exposure): * 1 ± 3%; α-D-Glucosidase Yeast, percentage inhibition (α-D-glucosidase (yeast)): 3.4%
CC1(C)O[C@H]2O[C@H]3[C@@H]([C@H]2O1)N(Cc1ccc(B2OC(C)(C)C(C)(C)O2)cc1)C[C@H]3O [para 6, N-(4-Methylphenylboronic acid pinacol ester)-3,6-dideoxy-3,6-imino-1,2-O-isopropylidene-α-D-gulofuranose] | 5 | 14 | 9 | 6 | < 0 | 8 | 9 | 7 | 10 | 3 |  |  |  |  |  |  |  |  | 
OB(O)c1ccc(CN2CC(O)C3OC(O)C(O)C32)cc1 [para 7, N-(4-Methylphenylboronic acid)-3,6-dideoxy-3,6-imino-D-gulofuranose] |  | 27 ± 2 |  | 9 ± 5 |  | 15 ± 3 | 14 |  | 9 ± 6 |  | 4.2 | 1.1 | 68.1 | > 50 | > 50 | > 50 | > 50 | > 50 | 
OC[C@H](O)[C@@H]1[C@H](O)[C@H](O)CN1Cc1ccc(B(O)O)cc1 [para 8, N-(4-Methylphenylboronic acid)-1,4-dideoxy-1,4-imino-L-gulitol] |  | 14 ± 7 |  | 0 |  | 5 ± 2 | 11 ± 1 |  | 1 ± 2 |  | 9.7 | 2.4 | 23.9 | > 50 | > 50 | > 50 | > 50 | > 50 | 
